{
  "source": "patent US20040259853A1",
  "about": "“Methods for preventing acute clinical vascular events in a subject” (The Trustees of Columbia University, priority 2000, published 2004)",
  "key": {"[1]": {"test_system": "cholesterol trafficking to the plasma membrane", "experiment": "Cholesterol oxidase assay (plasma membrane cholesterol)", "assay_type": "cell-based, mouse", "protocol": "Shown is the mass (in μg/mg cell protein) of cholesterol (Chol, open bars), which is the cholesterol oxidase-inaccessible pool of intracellular cholesterol, and of cholestenone (CN, striped bars), which is the cholesterol oxidase-accessible pool of plasma membrane cholesterol.\nMacrophages were fixed with 1% glutaraldehyde for 10 min and then incubated for 30 min at 37° C. with 2 U/ml Streptomyces cholesterol oxidase. Cellular lipids were extracted twice with 0.5 ml of hexane:isopropanol (3:2).\nCholesterol and.cholestenone mass in these extracts were determined by gas-liquid chromatography using β-sitosterol as an internal standard. The lipid-extracted cell monolayer was dissolved in 1 ml 1N NaOH and assayed for protein content using the method of Lowry et al. (50)."}, "ABCA1 protein": {"test_system": "ABCA1 protein", "experiment": "ABCA1 immunoblot of total and cell-surface protein in cholesterol-loaded macrophages", "assay_type": "cell-based, mouse", "protocol": "Macrophages were pre-incubated for 14 h with 50 μg/ml acetyl-LDL in DMEM, 0.2% BSA, in the absence (CE) or presence (FC) of 58035. The cells were then incubated for 5 h with 100 μg/ml acetyl-LDL in DMEM, 0.2% BSA, in the absence or presence of 58035, respectively, with no further additions (Control) or in the presence of 10 μg/ml cycloheximide, 50 μM ALLN, or 50 μM lactacystin as indicated. Aliquots of cell lysates were then assayed for ABCA1 and β-actin protein by immunoblot analysis.\nMacrophages were pre-incubated for 14 h with 50 μg/ml acetyl-LDL in DMEM, 0.2% BSA, in the absence (CE) or presence (FC) of 58035. […] Aliquots of total cell protein (top panel) or cell-surface protein (bottom panel) were then subjected to immunoblot analysis for ABCA1 and the standards β-actin or β1-integrin.\nMacrophage monolayers in 35-mm dishes were washed with ice-cold PBS 3 times and then incubated with ice-cold PBS containing 0.5 mg/ml NHS—SS-biotin (Pierce) for 30 minutes at 4° C. After washing 5 times with ice-cold PBS containing 20 mM Tris-HCl, pH 8.0, the cells were scraped into PBS and pelleted by centrifugation. The pelleted macrophages were lysed in 50 μl RIPA buffer (0.5% sodium deoxycholate, 0.1% SDS, 1% Triton X-100, 20 mM Tris, 150 mM NaCl, and 5 mM EDTA, pH 8) containing 1 mM PMSF. […] of the lysate were subjected directly to 4-20% gradient SDS-polyacrylamide gel electrophoresis (SDS-PAGE) for determination of total ABCA1. The rest of the cell lysate was affinity-purified to isolate biotinylated proteins. Briefly, the cell lysates were diluted to 150 μl in RIPA buffer and incubated with 50 μl immobilized streptavidin agarose (Pierce), which was pre-washed three times with RIPA buffer at 0° C. for 2 h with gentle shaking. The agarose was pelleted by centrifugation using a microcentrifuge at 5,000 rpm for 2 min; the pellet was resuspended in 1 ml RIPA buffer, and the process was repeated 5 times. The agarose was resuspended 30 μl SDS-PAGE loading buffer containing 330 mM β-mercaptoethanol at 37^6C for 15 min and subjected to SDS-PAGE as above. ABCA1 and β-integrin were detected by Western blot using anti-ABCA1 and anti-β-integrin anti-sera. The blots were reprobed with anti-β-actin antibody, which detected no actin signal, thus verifying that no cytosolic protein was biotinylated by the procedure.\nPeritoneal macrophages were lysed in RIPA buffer containing 1 mM PMSF. Nuclei were removed by centrifugation at 3000×g for 10 min at 4° C. […] For Western blot detection of ABCA1, anti-ABCA1 antiserum was used. Signals were detected using HRP-conjugated secondary anti-bodies (Bio-Rad) and ECL (Amersham Pharmacia Biotech). The membranes were reprobed with anti-β actin monoclonal antibody or anti-β1-integrin anti-serum for the proper internal controls. The relative intensities of the bands were determined by densitometry."}, "[2]": {"test_system": "mouse peritoneal macrophages", "experiment": "Annexin V / propidium iodide cell death assay of macrophages", "from_the_text": "Representative fluorescence images and quantitative cell death data from five fields of cells for each condition are shown, expressed as the percent of total cells that stained with annexin V or propidium iodide (mean±S.E.M.; n=5 fields of cells, where each field had ˜200 cells).\nRepresentative fluorescence images and quantitative data are shown (mean±S.E.M.; n=5 fields of cells, where each field had ˜200 cells).\nRepresentative fluorescence images are shown in FIG. 19A, and quantitative apoptosis data from five fields of cells for each condition are shown in FIG. 19B, expressed as the percent of total cells that stained with annexin V or propidium iodide (mean±S.E.M.; n=5 fields of cells, where each field had ˜200 cells).\nPeritoneal macrophages from adult female C57BL/6 mice and all mutant mice used in this study were harvested three days after the intraperitoneal injection of 40/g of concanavalin A in 0.5 ml of PBS. The cells were incubated in Dulbecco's modified Eagle's medium (DMEM) supplemented with 10% fetal bovine serum (FBS) and 20% L-cell conditioned medium. The medium was replaced every 24 hours until the macrophages were confluent. On the day of the experiment, the cells were washed three times with warm PBS and incubated as indicated in the Description of Figures for FIGS. 15A-20E. Most importantly, FC-loading of wild type and mutant macrophages was effected by incubating the cells with 100 μg/ml acetyl-LDL in the presence of 10 μg/ml 58035, which inhibits ACAT-mediated cholesterol esterification (11). At the end of the incubation period, the macrophages were assayed for early-mid-stage apoptosis (i.e., phosphatidylserine externalization) by staining with Alexa-488-labeled annexin V and for late-stage apoptosis (i.e., increased membrane permeability) by staining with propidium iodide (PI), as previously described (11). Cells were immediately viewed with an Olympus IX-70 inverted fluorescence microscope, and 3-6 representative fields (˜1000 cells) for each condition were counted for the number of annexin-positive, PI-positive, and total cells."}, "[3]": {"test_system": "unfolded protein response (UPR)", "experiment": "Immunoblot analysis of UPR markers (CHOP, PERK, IRE1α, XBP-1) in macrophages", "method": "For detection of PERK, nuclei-free cell extracts were immunoprecipitated with anti-PERK antiserum and then immunoblotted, while for detection of ATF-4 and CHOP, immunoblots were performed on nuclear extracts. Lamin B, a nuclear protein, was used as the loading control.\nImmunoprecipitation and immunoblot detection for IRE1α and PERK were conducted as described by Harding et al. (35). Immunoblot analyses of XBP-1, ATF4, and CHOP were carried out as described previously (36,38) with minor modifications. Briefly, cells were lysed in RIPA buffer to prepare whole-cell lysates or to prepare nuclei by centrifugation. The whole-cell lysates or nuclei were resuspended in 2×SDS-PAGE loading buffer and incubated at 95° C. for 10 min. Whole cell (100 μg) or nuclear lysates (20 μg) were electrophoresed on 4-20% gradient SDS-PAGE gels and electrotransferred to 0.22-μm nitrocellulose membrane using a Bio-Rad mini-transfer tank. After incubation with primary antibodies, the protein bands were detected with HRP-conjugated secondary antibodies (Bio-Rad) and ECL (Amersham Pharmacia Biotech). The membranes were reprobed with an anti-β-actin monoclonal antibody or an anti-lamin B serum to control for differences in loading."}},
  "data": [
    {"smiles": "CCN(CC)CCO[C@H]1CC[C@@]2(C)C(=CC[C@@H]3[C@@H]2CC[C@]2(C)C(=O)CC[C@@H]32)C1", "note": "[U18666A, 3-β-[2-(diethylamino)ethoxy]androst-5-en-17-one]", "values": [
      {"measurement": "reduction of cholesterol trafficking to the plasma membrane", "setting": "[1]; 70 nM (data not shown)", "result": "about 10%"},
      {"measurement": "accrual of cholesterol in the plasma membrane", "setting": "[1]; low dose (70 nM), cholesterol oxidase accessibility and cyclodextrin extractability (FIG. 15B)", "result": "no effect"},
      {"measurement": "ABCA1 protein loss in free cholesterol-loaded cells (total protein)", "setting": "ABCA1 protein; 70 nM (FIG. 13, top panel)", "result": "protected from the ABCA1 protein loss"},
      {"measurement": "decrease of cell-surface ABCA1 protein", "setting": "ABCA1 protein; 70 nM, FC-loaded cells (FIG. 13, bottom panel), 60% in untreated cells", "result": "about 15%"},
      {"measurement": "ABCA1 protein expression in free cholesterol-loaded cells", "setting": "ABCA1 protein; low concentrations", "result": "markedly enhance"},
      {"measurement": "staurosporine-induced macrophage apoptosis", "setting": "[2]; data not shown", "result": "failed to protect"},
      {"measurement": "FC-induced death of Perk−/− macrophages", "setting": "[2]; low dose (70 nM), 10 h (FIGS. 19A, 19B)", "result": "markedly protected"},
      {"measurement": "FC-induced macrophage death", "setting": "[2]; low dose (70 nM), acetyl-LDL + 58035, 8 h (FIG. 15C)", "result": "protected macrophages from the lethal effect of cholesterol loading"},
      {"measurement": "IRE1α activation and XBP-1 expression in FC-loaded macrophages", "setting": "[3]; low dose (70 nM) (FIG. 16D, lane 5)", "result": "markedly attenuated both events"},
      {"measurement": "CHOP induction in FC-loaded macrophages", "setting": "[3]; low dose (70 nM), 5 h (FIG. 16A, lane 5)", "result": "attenuated CHOP induction"},
      {"measurement": "PERK activation in FC-loaded macrophages", "setting": "[3]; low dose (70 nM), 5 h (FIG. 16B, lane 5)", "result": "blocked PERK activation"}
    ]}
  ]
}
